For assay [1], the system named is Guinea pigs sensitized to ovalbumin (anaphylactic shock). Nature of the assay: Anaphylaxis in guinea pigs: protection against death after ovalbumin challenge (survival). Conditions: Cavia porcellus, estimated ED50, oral, protection against death after i.v. 0.6 mg ovalbumin, read-out: Anaphylaxis in guinea pigs oral effective dose in mg/kg: Survival. It counts as in vivo, guinea pig. As to the method:
The anti-anaphylactic and antihistaminic effects of the subject compounds (I) and salts thereof are studied "in vivo" in guinea pigs.
Guinea pigs, weighing between 400 and 500 g, are sensitized to ovalbumin by subplantar (s.p.) injection of 0.05 ml of antiserum in the left hind paw. The animals are then starved and orally treated, 24 hours after the sensitization, with saline (=control animals) or a particular dose of the compound under investigation.
The histamine injection (at a dose of 50 μg) was given s.p. in the right hind paw 2 hours after the oral pretreatment with the compound. The diameters of both hind paws are first measured before the histamine injection is given and again 10 minutes thereafter. The animals are challenged intravenously with 0.6 mg of ovalbumin 30 minutes after the histamine injection. All control animals develop typical primary anaphylactic shock symptoms (coughing, difficult breathing, convulsions) and 85% of these control animals die within 15 minutes after the ovalbumin injection. Protection against death is used as the criterion for possible drug effects and the estimated ED50 -value, i.e. the oral dose whereby the protection is observed in 50% of the guinea pigs, is listed in the tables below.

Assay [2] has as its system histamine paw oedema in guinea pigs. Nature of the assay: Histamine paw oedema in guinea pigs. It counts as in vivo, guinea pig. The note with it: Cavia porcellus, oral dose giving paw reaction below 10 units 10 minutes after 50 μg histamine s.p., 2 hours after dosing, read-out: Anaphylaxis in guinea pigs oral effective dose in mg/kg: Histamine oedema. On the procedure: Guinea pigs, weighing between 400 and 500 g, are sensitized to ovalbumin by subplantar (s.p.) injection of 0.05 ml of antiserum in the left hind paw. The animals are then starved and orally treated, 24 hours after the sensitization, with saline (=control animals) or a particular dose of the compound under investigation. The histamine injection (at a dose of 50 μg) was given s.p. in the right hind paw 2 hours after the oral pretreatment with the compound.

For assay [3], the system named is Guinea-pig ileum strips, histamine-induced contraction. Kind of assay: Anti-histamine activity in "vitro": histamine-induced spasms of guinea-pig ileum strips. It counts as cell-based. Conditions: Cavia porcellus, 5 min, histamine 0.5 mg/liter, 5 minutes incubation, concentration giving significant inhibition (50%) of the contraction. As to the method:
The histamine--(0.5 mg/liter) induced spasms are recorded Kymographically with an isotonic lever giving a 5-fold magnification.

Where [4] appears, read: Table I-a, read-out: Histamine in "vitro" (ileum) effective conc.
[5] abbreviates: Table I-b, read-out: Histamine in "vitro" (ileum) effective conc.
Setting [6] is: Table I-e, read-out: Histamine in "vitro" (ileum) effective dose.

This is an account of results in patent US4250176A, “Piperazine derivatives” (priority 1979, dated 1981).

In brackets after ≈: the same amount, converted by molar mass. Structures can show the parent of a compound that is named as a salt. Where two headings read alike, the source gives them in different places.

For `Cc1ccc(C(c2ccccc2)N2CCN(CCCn3c(=O)[nH]c4ccccc43)CC2)cc1` (stereo not drawn) [1,3-dihydro-1-[3-{4-[(4-methylphenyl)phenylmethyl]-1-piperazinyl}-propyl}-2H-benzimidazol-2-one], in assay [1] (Table I-a), the ED50 is under 2.5 mg/kg. Moreover, in assay [2] (Table I-a), the minimal effective dose was under 2.5 mg/kg. In addition, the IC50 in assay [3] (setting [4]) is 0.08 mg/L (≈ 0.182 µM).
As for `O=c1[nH]c2ccccc2n1CCCN1CCN(C(c2ccccc2)c2ccc([N+](=O)[O-])cc2)CC1` (stereo not drawn) [1,3-dihydro-1-[3-{4-[(4-nitrophenyl)phenylmethyl]-1-piperazinyl}propyl]-2H-benzimidazol-2-one], in assay [1] (Table I-a), the ED50 is under 2.5 mg/kg. Further, in assay [2] (Table I-a), the minimal effective dose is under 2.5 mg/kg. The IC50 in assay [3] (setting [4]) was found to be 0.16 mg/L (≈ 0.339 µM).
In the case of `O=c1[nH]c2ccccc2n1CCN1CCC(OC(c2ccc(F)cc2)c2ccc(F)cc2)CC1` [1-[2-{4-[bis(4-fluorophenyl)methoxy]-1-piperidinyl}ethyl]-1,3-dihydro-2H-benzimidazol-2-one hydrochloride.hemihydrate], in assay [1] (Table I-d), the ED50 is 0.31 mg/kg. Further, the minimal effective dose in assay [2] (Table I-d) stood at 0.31 mg/kg. The IC50 in assay [3] (Table I-d, read-out: Histamine in "vitro" (ileum) effective dose) amounted to 0.0025 mg/L.
For the compound `O=c1[nH]c2ccccc2n1CCN1CCN(C(c2ccc(F)cc2)c2ccc(F)cc2)CC1` [1-[2-{4-[bis(4-fluorophenyl)methyl]-1-piperazinyl}ethyl]-1,3-dihydro-2H-benzimidazol-2-one hemihydrate], in assay [1] (Table I-a), the ED50 was 0.63 mg/kg. The minimal effective dose in assay [2] (Table I-a) was found to be 0.63 mg/kg. The IC50 in assay [3] (setting [4]) was 0.02 mg/L.
Turning to `O=c1[nH]c2ccccc2n1CCN1CCN(C(c2ccccc2)c2ccc(F)cc2)CC1` (stereo not drawn) [1-[2-{4-[α-(4-fluorophenyl)-α-phenylmethyl]-1-piperazinyl}ethyl]-1,3-dihydro-2H-benzimidazol-2-one], the ED50 in assay [1] (Table I-a) was 0.31 mg/kg. Further, in assay [2] (Table I-a), the minimal effective dose came to 0.16 mg/kg. In assay [3] (setting [4]), the IC50 is 0.02 mg/L (≈ 0.0465 µM).
For `O=c1[nH]c2ccccc2n1CCCN1CCN(C(c2ccccc2)c2ccccc2Cl)CC1` (stereo not drawn) [1-[3-{4-[(2-chlorophenyl)phenylmethyl]-1-piperazinyl}-propyl]-1,3-dihydro-2H-benzimidazol-2-one], in assay [3] (setting [4]), the IC50 is 0.08 mg/L (≈ 0.174 µM).
Take `CC(CN1CCN(C(c2ccccc2)c2ccccc2)CC1)Cn1cnc2ccccc21` (stereo not drawn) [1-{3-[4-(diphenylmethyl)-1-piperazinyl]-2-methylpropyl}-1H-benzimidazole trihydrochloride.hemihydrate]: the IC50 in assay [3] (setting [5]) was determined as 0.02 mg/L.
Take `CNC(=O)n1c(=O)n(CCCN2CCN(C(c3ccccc3)c3ccccc3)CC2)c2ccccc21` [3-{3-[4-(diphenylmethyl)-1-piperazinyl]propyl}-2,3-dihydro-N-methyl-2-oxo-1H-benzimidazole-1-carboxamide]: in assay [3] (setting [4]), the IC50 came to 0.02 mg/L (≈ 0.0414 µM).
For the compound `O=c1[nH]c2cccc(Cl)c2n1CCCN1CCN(C(c2ccccc2)c2ccccc2)CC1` [4-chloro-3-{3-[4-(diphenylmethyl)-1-piperazinyl]propyl}-1,3-dihydro-2H-benzimidazol-2-one], in assay [1] (Table I-a), the ED50 is at least 2.5 mg/kg. Besides, the IC50 in assay [3] (setting [4]) is 0.08 mg/L (≈ 0.174 µM).
For `O=c1n(CCCN2CCN(C(c3ccccc3)c3ccccc3)CC2)c2ccc(Cl)cc2n1-c1ccccc1` [5-chloro-1-{3-[4-(diphenylmethyl)-1-piperazinyl]propyl}-1,3-dihydro-3-phenyl-2H-benzimidazol-2-one dihydrochloride.hemihydrate], in assay [3] (setting [4]), the IC50 stood at 0.08 mg/L.
Regarding `Clc1ccc2c(c1)nc(Cc1ccccc1)n2CCCN1CCN(C(c2ccccc2)c2ccccc2)CC1` [5-chloro-1-{3-[4-(diphenylmethyl)-1-piperazinyl]propyl}-2-(phenylmethyl)-1H-benzimidazole trihydrochloride.hydrate], in assay [1] (Table I-b), the ED50 was 2.5 mg/kg.
`Clc1ccc2c(c1)nc(C1CCCCC1)n2CCCN1CCN(C(c2ccccc2)c2ccccc2)CC1` [5-chloro-2-cyclohexyl-1-{5-[4-diphenylmethyl)-1-piperazinyl]propyl}-1H-benzimidazole]: the ED50 in assay [1] (Table I-b) was 0.63 mg/kg. For the same compound, the minimal effective dose in assay [2] (Table I-b) turned out to be 2.5 mg/kg.
As for `Clc1ccc2nc(C3CCCCC3)n(CCCN3CCN(C(c4ccccc4)c4ccccc4)CC3)c2c1` [6-chloro-2-cyclohexyl-1-[3-[4-(diphenylmethyl)-1-piperazinyl]propyl}-1H-benzimidazole], in assay [1] (Table I-b), the ED50 was 2.5 mg/kg.
`CCc1nc2cc(Cl)ccc2n1CCCN1CCN(C(c2ccccc2)c2ccccc2)CC1` [I-b: M=C2H5, R1=5-Cl, (CH2)3, R6=H, R7=H, 5-chloro-1-{3-[4-(diphenylmethyl)-1-piperazinyl]propyl}-2-ethyl-1H-benzimidazole trihydrochloride.hydrate]: the IC50 in assay [3] (setting [5]) turned out to be 0.01 mg/L.
The same measure, in the same setting: to `CCc1nc2ccccc2n1CCN1CCN(C(c2ccccc2)c2ccccc2)CC1` [I-b: M=C2H5, R1=H, (CH2)2, R6=H, R7=H, 1-{2-[4-(diphenylmethyl)-1-piperazinyl]ethyl}-2-ethyl-1H-benzimidazole trihydrochloride.hydrate] belongs at least 0.16 mg/L.
With `Clc1ccc2nc(-c3ccccc3)n(CCCN3CCN(C(c4ccccc4)c4ccccc4)CC3)c2c1` [I-b: M=C6H5, R1=6-Cl, (CH2)3, R6=H, R7=H, 6-chloro-1-{3-[4-(diphenylmethyl)-1-piperazinyl]propyl}-2-phenyl-1H-benzimidazole], in assay [1] (Table I-b), the ED50 was 2.5 mg/kg.
With `c1ccc(-c2nc3ccccc3n2CCCN2CCN(C(c3ccccc3)c3ccccc3)CC2)cc1` [I-b: M=C6H5, R1=H, (CH2)3, R6=H, R7=H, 1-{3-[4-(diphenylmethyl)-1-piperazinyl]propyl}-2-phenyl-1H-benzimidazole], in assay [3] (setting [5]), the IC50 was determined as 0.08 mg/L (≈ 0.164 µM).
The same measure, in the same setting: to `c1ccc(Cc2nc3ccccc3n2CCCN2CCN(C(c3ccccc3)c3ccccc3)CC2)cc1` [I-b: M=C6H5CH2, R1=H, (CH2)3, R6=H, R7=H, 1-{3-[4-(diphenylmethyl)-1-piperazinyl]propyl}-2-(phenylmethyl)-1H-benzimidazole trihydrochloride.trihydrate] belongs at least 0.16 mg/L.
For the compound `CC(=O)N=c1[nH]c2ccccc2n1CCCN1CCN(C(c2ccccc2)c2ccccc2)CC1` [I-b: M=CH3CONH, R1=H, (CH2)3, R6=H, R7=H, N-[1-{3-[4-(diphenylmethyl)-1-piperazinyl]propyl}-1,3-dihydro-2H-benzimidazol-2-ylidene]acetamide], the ED50 in assay [1] (Table I-b) was 2.5 mg/kg. In addition, the IC50 in assay [3] (setting [5]) was at least 0.16 mg/L.
With `O=c1[nH]c2ccccc2n1CCCN1CCN(C(c2ccncc2)c2ccc(F)cc2)CC1` (stereo not drawn) [I-e: Ar1=4-FC6H4, Ar2=4-pyridinyl, 1-[3-{4-[(4-fluorophenyl)(4-pyridinyl)methyl]-1-piperazinyl}propyl]-1,3-dihydro-2H-benzimidazol-2-one], the minimal effective dose in assay [2] (Table I-e) was at most 2.5 mg/kg. The IC50 in assay [3] (setting [6]) is 0.16 mg/L (≈ 0.359 µM).
Turning to `Cc1ccc(C)c(C(c2ccccc2)N2CCN(CCCn3c(=O)[nH]c4ccccc43)CC2)c1` (stereo not drawn) [I-e: Ar1=C6H5, Ar2=2,5-(CH3)2C6H3, 1-[3-{4-[(2,5-dimethylphenyl)phenylmethyl]-1-piperazinyl}propyl]-1,3-dihydro-2H-benzimidazol-2-one], in assay [3] (setting [6]), the IC50 worked out at 0.16 mg/L (≈ 0.352 µM).
With `O=c1[nH]c2ccccc2n1CCCN1CCN(C(c2ccccc2)c2ccccn2)CC1` (stereo not drawn) [I-e: Ar1=C6H5, Ar2=2-pyridinyl, 1,3-dihydro-1-[3-{4-[phenyl(2-pyridinyl)methyl]-1-piperazinyl}propyl]-2H-benzimidazol-2-one], in assay [2] (Table I-e), the minimal effective dose was 2.5 mg/kg. Also, the IC50 in assay [3] (setting [6]) turned out to be 0.16 mg/L (≈ 0.374 µM).
For `O=c1[nH]c2ccccc2n1CCCN1CCN(C(c2ccccc2)c2cccnc2)CC1` (stereo not drawn) [I-e: Ar1=C6H5, Ar2=3-pyridinyl, 1,3-dihydro-1-[3-{4-[phenyl(3-pyridinyl)methyl]-1-piperazinyl}propyl]-2H-benzimidazol-2-one], in that order: under 2.5 mg/kg and 0.08 mg/L (≈ 0.187 µM).
